# Laboratory results taken from patent US20260027116A1, “Methods of Treating Chronic Graft-Versus-Host Disease Following Allogeneic Hematopoietic Stem Cell Transplantation” (Kadmon Corporation, LLC, priority 2022, published 2026).
# Tested on: patients with cGVHD
# Conditions: Cohort 2 200 mg BID
smiles,measurement,value
"CC(C)NC(=O)COc1cccc(-c2nc(Nc3ccc4[nH]ncc4c3)c3ccccc3n2)c1 [Belumosudil, 2-{3-[4-(1H-indazol-5-ylamino)-2-quinazolinyl]phenoxy}-N-(propan-2-yl) acetamide]",Bronchoscopy: # Events,0
same,Bronchoscopy: Affected/At Risk (%),0/16 (0%)
same,Catheter site haemorrhage: # Events,0
same,Catheter site haemorrhage: Affected/At Risk (%),0/16 (0%)
same,Chills: # Events,1
same,Chills: Affected/At Risk (%),1/16 (6.25%)
same,Chronic kidney disease: # Events,0
same,Chronic kidney disease: Affected/At Risk (%),0/16 (0%)
same,Conjunctival haemorrhage: # Events,1
same,Conjunctival haemorrhage: Affected/At Risk (%),1/16 (6.25%)
same,Conjunctivitis: # Events,1
same,Conjunctivitis: Affected/At Risk (%),1/16 (6.25%)
same,Constipation: # Events,1
same,Constipation: Affected/At Risk (%),1/16 (6.25%)
same,Contrast media allergy: # Events,2
same,Contrast media allergy: Affected/At Risk (%),2/16 (12.5%)
same,Contusion: # Events,2
same,Contusion: Affected/At Risk (%),2/16 (12.5%)
same,Corneal abrasion: # Events,0
same,Corneal abrasion: Affected/At Risk (%),0/16 (0%)
same,Corneal infection: # Events,2
same,Corneal infection: Affected/At Risk (%),1/16 (6.25%)
same,Cough: # Events,5
same,Cough: Affected/At Risk (%),4/16 (25%)
same,"Death, No. (%)",0
same,Decreased appetite: # Events,2
same,Decreased appetite: Affected/At Risk (%),2/16 (12.5%)
same,Dehydration: # Events,4
same,Dehydration: Affected/At Risk (%),3/16 (18.75%)
same,Depression: # Events,4
same,Depression: Affected/At Risk (%),4/16 (25%)
same,Diarrhoea: # Events,10
same,Diarrhoea: Affected/At Risk (%),5/16 (31.25%)
same,Dizziness: # Events,4
same,Dizziness: Affected/At Risk (%),1/16 (6.25%)
same,Drug eruption: # Events,1
same,Drug eruption: Affected/At Risk (%),1/16 (6.25%)
same,"Drug-related AE, No. (%)",8 (50)
same,"Drug-related SAE, No. (%)",0
same,Dry eye: # Events,4
same,Dry eye: Affected/At Risk (%),4/16 (25%)
same,Dry skin: # Events,0
same,Dry skin: Affected/At Risk (%),0/16 (0%)
same,Dyspepsia: # Events,2
same,Dyspepsia: Affected/At Risk (%),2/16 (12.5%)
same,Dysphagia: # Events,4
same,Dysphagia: Affected/At Risk (%),3/16 (18.75%)
same,Dyspnoea exertional: # Events,0
same,Dyspnoea exertional: Affected/At Risk (%),0/16 (0%)
same,Dyspnoea: # Events,7
same,Dyspnoea: Affected/At Risk (%),5/16 (31.25%)
same,Embolism: # Events,0
same,Embolism: Affected/At Risk (%),0/16 (0%)
same,Enamel anomaly: # Events,1
same,Enamel anomaly: Affected/At Risk (%),1/16 (6.25%)
same,Epidural lipomatosis: # Events,0
same,Epidural lipomatosis: Affected/At Risk (%),0/16 (0%)
same,Epstein-Barr virus infection: # Events,0
same,Epstein-Barr virus infection: Affected/At Risk (%),0/16 (0%)
same,Erectile dysfunction: # Events,0
same,Erectile dysfunction: Affected/At Risk (%),0/16 (0%)
same,Eye irritation: # Events,0
same,Eye irritation: Affected/At Risk (%),0/16 (0%)
same,Eye pain: # Events,4
same,Eye pain: Affected/At Risk (%),2/16 (12.5%)
same,Eye pruritus: # Events,1
same,Eye pruritus: Affected/At Risk (%),1/16 (6.25%)
same,Fall: # Events,1
same,Fall: Affected/At Risk (%),1/16 (6.25%)
same,Fatigue: # Events,7
same,Fatigue: Affected/At Risk (%),3/16 (18.75%)
same,Flatulence: # Events,2
same,Flatulence: Affected/At Risk (%),1/16 (6.25%)
same,Flushing: # Events,1
same,Flushing: Affected/At Risk (%),1/16 (6.25%)
same,Fungal infection: # Events,0
same,Fungal infection: Affected/At Risk (%),0/16 (0%)
same,Gamma-glutamyltransferase increased: # Events,4
same,Gamma-glutamyltransferase increased: Affected/At Risk (%),4/16 (25%)
same,Gastric ulcer: # Events,1
same,Gastric ulcer: Affected/At Risk (%),1/16 (6.25%)
same,Gastrooesophageal reflux disease: # Events,1
same,Gastrooesophageal reflux disease: Affected/At Risk (%),1/16 (6.25%)
same,Generalised oedema: # Events,0
same,Generalised oedema: Affected/At Risk (%),0/16 (0%)
same,Genital infection fungal: # Events,1
same,Genital infection fungal: Affected/At Risk (%),1/16 (6.25%)
same,Glaucoma: # Events,1
same,Glucose urine present: # Events,0
same,Glucose urine present: Affected/At Risk (%),0/16 (0%)
same,"Grade ≥3 AE, No. (%)",10 (63)
same,"Grade ≥3 ALT/AST increased, No. (%)",2 (13)
same,"Grade ≥3 Anemia, No. (%)",1 (6)
same,"Grade ≥3 Dyspnea, No. (%)",2 (13)
same,"Grade ≥3 Hyperglycemia, No. (%)",0
same,"Grade ≥3 Hypoxia, No. (%)",1 (6)
same,"Grade ≥3 Lung infection or pneumonia, No. (%)",2 (13)
same,Graft versus host disease in gastrointestinal tract: # Events,0
same,Graft versus host disease in gastrointestinal tract: Affected/At Risk (%),0/16 (0%)
same,Gynaecomastia: # Events,1
same,Gynaecomastia: Affected/At Risk (%),1/16 (6.25%)
same,Haematuria: # Events,1
same,Haematuria: Affected/At Risk (%),1/16 (6.25%)
same,Hair growth abnormal: # Events,0
same,Hair growth abnormal: Affected/At Risk (%),0/16 (0%)
same,Headache: # Events,3
same,Headache: Affected/At Risk (%),3/16 (18.75%)
same,Hodgkin's disease recurrent: # Events,0
same,Hodgkin's disease recurrent: Affected/At Risk (%),0/16 (0%)
same,Hordeolum: # Events,0
same,Hordeolum: Affected/At Risk (%),0/16 (0%)
same,Hot flush: # Events,0
same,Hot flush: Affected/At Risk (%),0/16 (0%)
same,Hyperglycemia: # Events,0
same,Hyperglycemia: Affected/At Risk (%),0/16 (0%)
same,Hyperhidrosis: # Events,1
same,Hyperhidrosis: Affected/At Risk (%),1/16 (6.25%)
same,Hyperkalaemia: # Events,2
same,Hyperkalaemia: Affected/At Risk (%),2/16 (12.5%)
same,Hypertension: # Events,5
same,Hypertension: Affected/At Risk (%),2/16 (12.5%)
same,Hyperthyroidism: # Events,1
same,Hyperthyroidism: Affected/At Risk (%),1/16 (6.25%)
same,Hypertriglyceridaemia: # Events,1
same,Hypertriglyceridaemia: Affected/At Risk (%),1/16 (6.25%)
same,Hyperuricaemia: # Events,2
same,Hyperuricaemia: Affected/At Risk (%),1/16 (6.25%)
same,Hypoaesthesia: # Events,0
same,Hypoaesthesia: Affected/At Risk (%),0/16 (0%)
same,Hypocalcaemia: # Events,4
same,Hypocalcaemia: Affected/At Risk (%),1/16 (6.25%)
same,Hypogonadism: # Events,0
same,Hypogonadism: Affected/At Risk (%),0/16 (0%)
same,Hypokalaemia: # Events,3
same,Hypokalaemia: Affected/At Risk (%),2/16 (12.5%)
same,Hypomagnesaemia: # Events,1
same,Hypomagnesaemia: Affected/At Risk (%),1/16 (6.25%)
same,Hyponatraemia: # Events,0
same,Hyponatraemia: Affected/At Risk (%),0/16 (0%)
same,Hypophosphataemia: # Events,1
same,Hypophosphataemia: Affected/At Risk (%),1/16 (6.25%)
same,Hypothermia: # Events,1
same,Hypothermia: Affected/At Risk (%),1/16 (6.25%)
same,Hypothyroidism: # Events,2
same,Hypothyroidism: Affected/At Risk (%),1/16 (6.25%)
same,Hypoxia: # Events,5
same,Hypoxia: Affected/At Risk (%),2/16 (12.5%)
same,Impaired healing: # Events,0
same,Impaired healing: Affected/At Risk (%),0/16 (0%)
same,Influenza like illness: # Events,2
same,Influenza like illness: Affected/At Risk (%),1/16 (6.25%)
same,Influenza: # Events,2
same,Influenza: Affected/At Risk (%),1/16 (6.25%)
same,Insomnia: # Events,0
same,Insomnia: Affected/At Risk (%),0/16 (0%)
same,Irritability: # Events,0
same,Irritability: Affected/At Risk (%),0/16 (0%)
same,Joint range of motion decreased: # Events,1
same,Joint range of motion decreased: Affected/At Risk (%),1/16 (6.25%)
same,Lacrimation increased: # Events,1
same,Lacrimation increased: Affected/At Risk (%),1/16 (6.25%)
same,Leukaemia recurrent: # Events,0
same,Leukaemia recurrent: Affected/At Risk (%),0/16 (0%)
same,Leukocytosis: # Events,0
same,Leukocytosis: Affected/At Risk (%),0/16 (0%)
same,Ligament sprain: # Events,0
same,Ligament sprain: Affected/At Risk (%),0/16 (0%)
same,Limb injury: # Events,0
same,Limb injury: Affected/At Risk (%),0/16 (0%)
same,Macular degeneration: # Events,1
